From the supplement of paper PMC10307832

Legend:
Experiment in all cases: relative viability (nuclei count vs DMSO), 5 days (fraction); higher = more cells survive
Quizartinib + Trametinib = compound: CC(C)(C)c1cc(NC(=O)Nc2ccc(-c3cn4c(n3)sc3cc(OCCN5CCOCC5)ccc34)cc2)no1 [Quizartinib] + CC(=O)Nc1cccc(-n2c(=O)n(C3CC3)c(=O)c3c(Nc4ccc(I)cc4F)n(C)c(=O)c(C)c32)c1 [Trametinib] (partner 0.02 µM)
Method in brief: (§1)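 The day after seeding in 1536-well plates, lung cancer cell lines were treated by pin tool with a single drug, or with a fixed anchor-drug dose together with five library-drug doses (not always all listed) in √10 steps. After 5 days, a combined fix-and-stain solution (final 0.05% Triton X-100, 1% formaldehyde, 1 ug/ml Hoechst) was added. Nuclei counted on 4× images gave relative viability as treated counts over vehicle counts, reported as the median of duplicate plates.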

Quizartinib + Alpelisib = compound: CC(C)(C)c1cc(NC(=O)Nc2ccc(-c3cn4c(n3)sc3cc(OCCN5CCOCC5)ccc34)cc2)no1 [Quizartinib] + Cc1nc(NC(=O)N2CCC[C@H]2C(N)=O)sc1-c1ccnc(C(C)(C)C(F)(F)F)c1 [Alpelisib] (partner 2 µM)
Method in brief: as §1

Quizartinib + Phenformin = compound: CC(C)(C)c1cc(NC(=O)Nc2ccc(-c3cn4c(n3)sc3cc(OCCN5CCOCC5)ccc34)cc2)no1 [Quizartinib] + N=C(N)NC(=N)NCCc1ccccc1 [Phenformin] (partner 250 µM)
Method in brief: as §1

YM155 + Vorinostat = compound: COCC[n+]1c2c(n(Cc3cnccn3)c1C)C(=O)c1ccccc1C2=O [YM155] + O=C(CCCCCCC(=O)Nc1ccccc1)NO [Vorinostat] (partner 1 µM)
Method in brief: as §1

Cell Line	relative viability (Quizartinib + Trametinib; first compound 0.001 µM)	relative viability (Quizartinib + Trametinib; first compound 0.003162 µM)	relative viability (Quizartinib + Trametinib; first compound 0.01 µM)	relative viability (Quizartinib + Trametinib; first compound 0.03162 µM)	relative viability (Quizartinib + Trametinib; first compound 0.1 µM)	relative viability (Quizartinib + Alpelisib; first compound 0.001 µM)	relative viability (Quizartinib + Alpelisib; first compound 0.003162 µM)	relative viability (Quizartinib + Alpelisib; first compound 0.01 µM)	relative viability (Quizartinib + Alpelisib; first compound 0.03162 µM)	relative viability (Quizartinib + Alpelisib; first compound 0.1 µM)	relative viability (Quizartinib + Phenformin; first compound 0.001 µM)	relative viability (Quizartinib + Phenformin; first compound 0.003162 µM)	relative viability (Quizartinib + Phenformin; first compound 0.01 µM)	relative viability (Quizartinib + Phenformin; first compound 0.03162 µM)	relative viability (Quizartinib + Phenformin; first compound 0.1 µM)	relative viability (YM155 + Vorinostat; first compound 0.002 µM)	relative viability (YM155 + Vorinostat; first compound 0.006325 µM)	relative viability (YM155 + Vorinostat; first compound 0.02 µM)	relative viability (YM155 + Vorinostat; first compound 0.06325 µM)
LOU-NH91	0.425	0.756	0.817	0.786	0.826	0.683	0.724	0.761	0.5	0.771	0.693	0.679	0.723	0.682	0.862	0.883	0.921	0.949	0.932
LU99A	0.485	0.503	0.554	0.583	0.518	0.448	0.512	0.627	0.517	0.431	0.774	0.78	0.904	0.533	0.248	0.508	0.419	0.514	0.441
LXF-289	0.613	0.692	0.709	0.702	0.622	0.992	0.999	1.1	1.01	0.947	0.485	0.496	0.529	0.497	0.539	0.739	0.789	0.73	0.756
NCI-H23	0.353	0.346	0.456	0.43	0.312		0.556	0.679	0.645	0.687		0.724	0.771	0.727	0.841		0.555	0.626	0.544
NCI-H322M	0.482	0.536	0.617	0.504	0.536	0.707	0.779	0.799	0.758	0.787	0.541	0.827	0.837	0.547	0.744	0.85	0.925	0.854	0.909
NCI-H358	0.146	0.146	0.11		0.129	0.693	0.89	0.815		0.753	0.292	0.4	0.327	0.115	0.299	0.641	0.643	0.86	0.106
NCI-H441	0.35	0.563	0.45	0.368	0.456	0.656	0.541	0.885	0.733	0.779	0.831	0.807	0.787		0.958	0.741	0.716	0.741	0.268
NCI-H460		0.152	0.104		0.0587	0.358	0.458	0.463		0.406	0.379	0.48	0.587	0.0822	0.028	0.706	0.727	0.802	0.688
NCI-H520		0.465	0.673	0.637	0.486	0.792	0.768	0.929	0.837	0.597	0.582	0.526	0.532	0.357	0.35	0.824	0.695	0.736	0.729
NCI-H596	0.794	0.695	0.805	0.77	0.8	0.521	0.498	1.34	0.407	0.396	0.834	0.681	0.712	0.667	0.714	0.554	0.468	0.676	0.551
NCI-H647	0.43	0.387	0.508	0.434	0.396	1.01	1.06	1.25	1.13	1.33	0.463	0.591	0.569	0.453	0.514	0.472	0.484	0.755	0.388
NCI-H650	0.94	0.938	0.96	0.923	1.06	1.02	1.12	1.14	1.14	1.14	0.433	0.454	0.409	0.399	0.476	0.364	0.491	0.5	0.312
NCI-H661	0.575	0.533	0.554	0.552	0.525	0.594	0.708	0.384	0.565	0.905	0.274	0.289	0.3	0.224	0.194	0.765	0.784	0.883	0.364
NCI-H727	0.424	0.355	0.366	0.397	0.429	0.482		0.588	0.586	0.556		0.514	0.584	0.52	0.469	1.32	1.28	1.27	1.29
NCI-H838	0.516	0.515	0.466	0.514	0.367	0.876	0.942	0.958	0.968	0.593	0.442	0.692	0.498	0.607	0.329	0.705	0.759	0.68	0.377
NCI-H1355	0.411	0.43	0.444	0.423	0.357	0.814	0.927	0.812	0.865	0.827	0.426	0.434	0.437	0.426	0.415	0.58	0.615	0.718	0.635
NCI-H1395	0.842	0.924	0.979	1.03	1.13	1.05	1.01	1.21	1.06	0.995	0.437	0.447	0.46	0.468	0.494	0.691	0.727	0.864	0.696
